In US4368199A, “Novel derivatives of 3,4,5-trimethoxy cinnamoyl piperazine, their salts, the process for preparing the same and their application in therapeutics” (Delalande S.A., priority 1980, dated 1983):
Where a name gives a salt, the structure may show the parent alone. Read-outs that look alike come from different tables or passages of the source.

Tests used:
[1] = Acute toxicity in the mouse (MILLER and TAINTER method); conditions: in vivo; for LD50: read-out: LD 50 (mouse)
Description: The acute toxicity was assessed in accordance with the MILLER and TAINTER method (Proc. Sci. Exp. Biol. Med. 1944, 57, 261)

dogs = assay: Haemodynamic tests on dogs anaesthetized with sodic pentobarbital (arterial pressure, cardiac frequency, coronary flow, cardiac contractile force); type: in vivo; conditions: dog; for change in vivo at 2.5 mg/kg / change in vivo at 0.625 mg/kg: Canis lupus familiaris, iv
Description: Tests were carried out on dogs anaesthetized with sodic pentobarbital (30 mg/kg/i.v.) and the compounds of formula (I) were administered intravenously. The activity on the cardiac contractile force was measured with a BRODIE and WALTON stress gauge fixed to the left ventricle.
The arterial pressure was measured at the femoral artery with a SANBORN pressure sensor.
The cardiac frequency was automatically counted by means of a cardiotachymeter from the pulse pressure wave.
The coronary flow was measured by means of an electromagnetic probe of the STATHAM or BIOTRONEX type at the coronary artery.

[2] = 2.5 mg/kg/i.v., read-out: Increase of the cardiac contractile force
[3] = 2.5 mg/kg/i.v., read-out: Variation of the average arterial pressure
[4] = 2.5 mg/kg/i.v., read-out: Variation of the cardiac frequency
[5] = 0.625 mg/kg/i.v., read-out: Increase of the cardiac contractile force
[6] = 0.625 mg/kg/i.v., read-out: Increase of the coronary flow
[7] = 0.625 mg/kg/i.v., read-out: Variation of the average arterial pressure
[8] = 0.625 mg/kg/i.v., read-out: Variation of the cardiac frequency
[9] = 2.5 mg/kg/i.v., read-out: Increase of the coronary flow
[10] = po, at 1000 mg/kg, read-out: LD 50 column: percentage in parentheses (p.o.)

SMILES | LD50 ([1]; iv) [mg/kg] | change in vivo at 2.5 mg/kg (dogs; [2]) [%] | change in vivo at 2.5 mg/kg (dogs; [3]) [%] | change in vivo at 2.5 mg/kg (dogs; [4]) [%] | Increase of the cardiac contractile force: duration (dogs; 2.5 mg/kg/i.v.) [mn] | Variation of the average arterial pressure: duration (dogs; 2.5 mg/kg/i.v.) [mn] | Variation of the cardiac frequency: duration (dogs; 2.5 mg/kg/i.v.) [mn] | change in vivo at 0.625 mg/kg (dogs; [5]) [%] | change in vivo at 0.625 mg/kg (dogs; [6]) [%] | change in vivo at 0.625 mg/kg (dogs; [7]) [%] | change in vivo at 0.625 mg/kg (dogs; [8]) [%] | change in vivo at 2.5 mg/kg (dogs; [9]) [%] | Increase of the cardiac contractile force: duration (dogs; 0.625 mg/kg/i.v.) [mn] | Variation of the average arterial pressure: duration (dogs; 0.625 mg/kg/i.v.) [mn] | Variation of the cardiac frequency: duration (dogs; 0.625 mg/kg/i.v.) [mn] | mortality [1, 10] [%] | Increase of the coronary flow: duration (dogs; 0.625 mg/kg/i.v.) [mn] | Increase of the coronary flow: duration (dogs; 2.5 mg/kg/i.v.) [mn] | mortality ([1]; iv, at 200 mg/kg, read-out: LD 50 column: percentage in parentheses) [%] | Increase of the cardiac contractile force (dogs; 2.5 mg/kg/i.v.)
COc1cc(C=CC(=O)N2CCN(CC(=O)c3ccc4ccccc4c3)CC2)cc(OC)c1OC [Compound 62] | 45 | 43 | -14 | 4 | > 30 | 10 | 5 | – | – | – | – | – | – | – | – | – | – | – | – | –
COc1cc(C=CC(=O)N2CCN(CC(=O)c3ccc(OC)c4c3OCCO4)CC2)cc(OC)c1OC [Compound 10] | 180 | 53 | -16 | 12 | 10 | > 30 | > 30 | 9 | 39 | -7 | 2 | 46 | < 10 | < 5 | < 5 | – | – | – | – | –
COc1cc(C=CC(=O)N2CCN(CC(=O)c3ccc(OC)c(OC)c3OC)CC2)cc(OC)c1OC [Compound 7] | – | 51 | -35 | -8 to 9 | < 10 | – | – | 69 | 277 | -22 | -2 to 15 | 416 | – | – | – | 0 | < 5 | < 20 | – | –
COc1cc(C=CC(=O)N2CCN(C3CCc4cc(O)c(O)cc4C3)CC2)cc(OC)c1OC (stereo not shown) [Compound 108, 2-[4-(3,4,5-trimethoxycinnamoyl) 1-piperazinyl] 1,2,3,4-tetrahydro 6,7-dihydroxy naphthyl hydrate] | 200 | 44 | -20 | 3 | – | > 30 | – | – | – | – | – | 29 | – | – | – | – | – | – | 20 | –
COc1cc(C=CC(=O)N2CCN(Cc3ccc(NC(C)=O)cc3)CC2)cc(OC)c1OC [Compound 41] | > 200 | 35 | -36 | -16 | – | – | – | – | – | – | – | – | – | – | – | – | – | – | – | –
CNC(=O)Nc1ccc(C(O)CN2CCN(C(=O)C=Cc3cc(OC)c(OC)c(OC)c3)CC2)cc1 (stereo not shown) [Compound 95] | > 200 | 21 | -20 | 8 | 10 | – | – | – | – | – | – | 27 | – | – | – | – | – | – | – | –
COc1cc(C=CC(=O)N2CCN(CCc3cccc(O)c3)CC2)cc(OC)c1OC [Compound 3] | > 200 | 62 | -36 | 7 | – | > 30 | – | 47 | 26 | -9 | 0 | 62 | 30 | – | – | – | 5 | – | – | –
COc1ccc(OC)c(C(O)CN2CCN(C(=O)C=Cc3cc(OC)c(OC)c(OC)c3)CC2)c1 (stereo not shown) [Compound 90] | – | 42 | -11 | 0 | – | – | – | – | – | – | – | 15 | – | – | – | 80 | – | – | – | –
COc1cc(C=CC(=O)N2CCN(CCc3c[nH]c4ccccc34)CC2)cc(OC)c1OC [Compound 105] | > 200 | 17 | -34 | 0 | – | > 30 | – | – | – | – | – | 55 | – | – | – | – | – | – | – | –
COc1ccc(CN2CCN(C(=O)C=Cc3cc(OC)c(OC)c(OC)c3)CC2)cc1OC [Compound 2] | 105 | – | -25 | 8 | > 308 | – | – | 71 | 93 | -12 | 6 | 76 to 398 | – | – | < 5 | – | < 20 | > 30 | – | +58 to
COc1ccc(C(O)CN2CCN(C(=O)C=Cc3cc(OC)c(OC)c(OC)c3)CC2)c(OC)c1 (stereo not shown) [Compound 89] | > 100 | 51 | -38 | -10 | – | > 30 | – | – | – | – | – | – | – | – | – | – | – | – | – | –
COc1ccc(CC(O)CN2CCN(C(=O)C=Cc3cc(OC)c(OC)c(OC)c3)CC2)cc1OC (stereo not shown) [Compound 102, 3-[4-(3,4,5-trimethoxycinnamoyl) 1-piperazinyl]1-(3,4-dimethoxy)phenyl 2-propanol hydrochloride hydrate] | > 200 | 13 | -26 | -4 | 10 | > 30 | – | – | – | – | – | 34 | – | – | – | – | – | – | – | –
COc1ccc(OC)c(C(=O)CN2CCN(C(=O)C=Cc3cc(OC)c(OC)c(OC)c3)CC2)c1 [Compound 70] | 168 | 50 | -21 | 5 | – | – | – | – | – | – | – | 27 | – | – | – | – | – | – | – | –
CNC(=O)Nc1ccc(CCN2CCN(C(=O)C=Cc3cc(OC)c(OC)c(OC)c3)CC2)cc1 [Compound 54] | > 200 | 48 | -9 | 4 | – | – | – | – | – | – | – | 181 | – | – | – | – | – | – | – | –
